Measurements taken from PubChem BioAssay AID1963826 (Molecular Pharmacology Branch, DTP, NCI, 2024).

Test system: 926638-142-R-J1-PDC complex spheroid viability
Experiment: Anticancer human tumor 926638-142-R-J1-PDC patient-derived endometrial carcinoma cell line growth inhibition [POLQ]
Details: for IC50: curve of first compound; for viability, T/C: stronger effect = lower value
Method: Multicellular complex tumor spheroid response to Polymerase (POL) inhibitors (novobiocin, ART-558, RP6685) in combination with a variety of drugs and investigational agents in selected tumor cell lines
The POL inhibitors (novobiocin, ART-558, and RP6685) were evaluated both individually and in combination with standard of care and investigational anticancer small molecules within a complex spheroid model of solid tumors. . Complex spheroids include a stromal component modeled by human endothelial cells (HUVEC) and fibroblasts modeled by human mesenchymal stem cells (MSCs). The concentration ranges selected for each drug and investigational agent were based upon clinically achievable concentrations if the clinical Cmax of the agent was known.
Compounds. The drugs and investigational agents: novobiocin (NSC847541), ART-558 (NSC835418), RP-6685 (NSC848927), peposertib (NSC802822), ceralasertib (NSC780249), elimusertib (NSC800525), camonsertib (NSC841442), AZD-1390 (NSC803789), olaparib (NSC753686), talazoparib (NSC767125), rucaparib (NSC756644), sotorasib (NSC818433), MRTX-1133 (NSC836407), SN-38 (NSC673596), topotecan (NSC609699), epotoside (NSC141540), doxorubicin (NSC123127), gemcitabine (NSC613327), 5-fluorouracil (NSC19893), paclitaxel (NSC125973), vemurafenib (NSC761431), MSA-2 (NSC828583), SN-011 (NSC837082), adavosertib (NSC754352), prexasertib (NSC758257), carboplatin (NSC241240) and oxaliplatin (NSC266046), were obtained from the National Cancer Institute (NCI) Developmental Therapeutics Program Chemical Repository (21). The FDA-approved anticancer drug set is available from the Developmental Therapeutics Program at https://dtp.cancer.gov/organization/dscb/obtaining/. […] The stock solutions were prepared in dimethyl sulfoxide (DMSO, Sigma-Aldrich, St. Louis, MO, cat. D2650), except for the platinum compounds which were prepared in saline (Quality Biological, Gaithersburg, MD, cat. 114-055-101), at 800-fold the tested concentration and stored at -70 degrees C prior to their use. All drugs and investigational agents were tested over a range starting from a high concentration at or near the clinical Cmax and decreasing in half-log increments. If the clinical Cmax for an agent had not been determined, the highest concentration tested was 10 microM, except for SN-38, which was tested at a high concentration of 1 microM.
Cell Culture. All cells were maintained in an incubator at 37 degrees C and 5% CO2 with 95% humidity. The PDC lines were cultured according to standard operating procedures established by the NCI PDMR (https://pdmr.cancer.gov). Table 3 of the manuscript, lists the cell lines along with the number of the three cell types plated to form the mct-spheroids and media for tumor cell growth. After thawing, all PDC lines, except 997537-175-T-J1-PDC and 415267-285-R-J2-PDC, were cultured in Matrigel-coated flasks prepared with a working solution of 1X Ham's F-12 nutrient mix, without supplementation (Thermo Fisher Scientific, cat. 11765054), 100 U/mL penicillin-streptomycin (Thermo Fisher Scientific, cat. 15140122), and 2.5% Matrigel (Corning Inc., Corning, NY, cat. 354248) for the first three passages. The two PDC lines 997537-175-T-J1-PDC and 415267-285-R-J2-PDC were cultured on uncoated flasks. The 857933-349-R-J2-PDC line was cultured in 6C/Colon 1B media containing advanced DMEM/F-12 (Thermo Fisher Scientific, cat. 12634028), 10 mM HEPES (Thermo Fisher Scientific, cat. 15630080), 1X GlutaMAX supplement (Thermo Fisher Scientific, cat. 35050061), 0.1 mg/mL primocin (InvivoGen, San Diego, CA, cat. ant-pm-2), 10% defined fetal bovine serum, heat inactivated (HyClone Laboratories Inc., Logan, UT, cat. SH30070.03HI), 50% L-WRN conditioned media (ATCC, cat. CRL-3276), 1.25 mM N-Acetyl-L-cysteine (Sigma-Aldrich, cat. A9165), 10 mM nicotinamide (Sigma-Aldrich, cat. N0636), 1X B-27 supplement (Thermo Fisher Scientific, cat. 17504044), 1X N-2 supplement (Thermo Fisher Scientific, cat. […]

[1] = second compound 0.0316 µM, first compound 0.0316 µM
[2] = second compound 0.0316 µM, first compound 0.1 µM
[3] = second compound 0.0316 µM, first compound 0.316 µM
[4] = second compound 0.0316 µM, first compound 1 µM
[5] = second compound 0.0316 µM, first compound 3.16 µM
[6] = second compound 0.0316 µM, first compound 10 µM
[7] = second compound 0.1 µM, first compound 0.0316 µM
[8] = second compound 0.1 µM, first compound 0.1 µM
[9] = second compound 0.1 µM, first compound 0.316 µM
[10] = second compound 0.1 µM, first compound 1 µM
[11] = second compound 0.1 µM, first compound 3.16 µM
[12] = second compound 0.1 µM, first compound 10 µM
[13] = second compound 0.316 µM, first compound 0.0316 µM
[14] = second compound 0.316 µM, first compound 0.1 µM
[15] = second compound 0.316 µM, first compound 0.316 µM
[16] = second compound 0.316 µM, first compound 1 µM
[17] = second compound 0.316 µM, first compound 3.16 µM
[18] = second compound 0.316 µM, first compound 10 µM
[19] = second compound 1 µM, first compound 0.0316 µM
[20] = second compound 1 µM, first compound 0.1 µM
[21] = second compound 1 µM, first compound 0.316 µM
[22] = second compound 1 µM, first compound 1 µM
[23] = second compound 1 µM, first compound 3.16 µM
[24] = second compound 1 µM, first compound 10 µM
[25] = second compound 3.16 µM, first compound 0.0316 µM
[26] = second compound 3.16 µM, first compound 0.1 µM
[27] = second compound 3.16 µM, first compound 0.316 µM
[28] = second compound 3.16 µM, first compound 1 µM
[29] = second compound 3.16 µM, first compound 3.16 µM
[30] = second compound 3.16 µM, first compound 10 µM
[31] = second compound 10 µM, first compound 0.0316 µM
[32] = second compound 10 µM, first compound 0.1 µM
[33] = second compound 10 µM, first compound 0.316 µM
[34] = second compound 10 µM, first compound 1 µM
[35] = second compound 10 µM, first compound 3.16 µM
[36] = second compound 10 µM, first compound 10 µM
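Note: spheroids exposed to drugs for one week before readout.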
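Throughout, for viability, T/C: percent viability relative to DMSO vehicle control wells set as 100%.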

Compound C=CC(=O)N1CCN(c2nc(=O)n(-c3c(C)ccnc3C(C)C)c3nc(-c4c(O)cccc4F)c(F)cc23)C(C)C1 (stereo unspecified) + COC1C(OC(N)=O)C(O)C(Oc2ccc3c(O)c(NC(=O)c4ccc(O)c(CC=C(C)C)c4)c(=O)oc3c2C)OC1(C)C has an IC50 (second compound 0.0316 µM) greater than 10 µM, an IC50 (second compound 0.1 µM) greater than 10 µM and an IC50 (second compound 0.316 µM) greater than 10 µM. The IC50 (second compound 1 µM) was greater than 10 µM, the IC50 (second compound 3.16 µM) was greater than 10 µM and the IC50 (second compound 10 µM) was 8.27 µM. For the same compound, the viability, T/C [1] was 83.3%, the viability, T/C [2] was 95.4% and the viability, T/C [3] was 76.5%. The viability, T/C [4] was 86.8%, the viability, T/C [5] was 64.2% and the viability, T/C [6] was 52.5%. The viability, T/C [7] was 92.6%, the viability, T/C [8] was 91.6% and the viability, T/C [9] was 85.1%. For the same compound, the viability, T/C [10] was 80.8%, the viability, T/C [11] was 80.1% and the viability, T/C [12] was 65.6%. It also gave a viability, T/C [13] of 101%, a viability, T/C [14] of 96.2% and a viability, T/C [15] of 87.3%. It also gave a viability, T/C [16] of 85.8%, a viability, T/C [17] of 68.5% and a viability, T/C [18] of 53.6%. The viability, T/C [19] was 81.3%, the viability, T/C [20] was 87.9% and the viability, T/C [21] was 77.1%. The viability, T/C [22] was 80.9%, the viability, T/C [23] was 77.2% and the viability, T/C [24] was 59.4%. It also gave a viability, T/C [25] of 74.1%, a viability, T/C [26] of 87.7% and a viability, T/C [27] of 77.4%. For the same compound, the viability, T/C [28] was 75.7%, the viability, T/C [29] was 74.5% and the viability, T/C [30] was 56.5%. For the same compound, the viability, T/C [31] was 77.4%, the viability, T/C [32] was 96% and the viability, T/C [33] was 103%. It also gave a viability, T/C [34] of 73.6%, a viability, T/C [35] of 76.1% and a viability, T/C [36] of 45.1%.

Work on CC1COCCN1c1cc(C2(S(C)(=N)=O)CC2)nc(-c2ccnc3[nH]ccc23)n1 (stereo unspecified) + COC1C(OC(N)=O)C(O)C(Oc2ccc3c(O)c(NC(=O)c4ccc(O)c(CC=C(C)C)c4)c(=O)oc3c2C)OC1(C)C yielded an IC50 (second compound 0.0316 µM) of 5.67 µM, an IC50 (second compound 0.1 µM) of 7.87 µM and an IC50 (second compound 0.316 µM) of 6.15 µM. For the same compound, the IC50 (second compound 1 µM) was 5.99 µM, the IC50 (second compound 3.16 µM) was 5.86 µM and the IC50 (second compound 10 µM) was 5.68 µM. For the same compound, the viability, T/C [1] was 119%, the viability, T/C [2] was 99.4% and the viability, T/C [3] was 110%. For the same compound, the viability, T/C [4] was 88.1%, the viability, T/C [5] was 64.9% and the viability, T/C [6] was 35.5%. For the same compound, the viability, T/C [7] was 96%, the viability, T/C [8] was 107% and the viability, T/C [9] was 109%. The viability, T/C [10] was 82.7%, the viability, T/C [11] was 71% and the viability, T/C [12] was 44.5%. It also gave a viability, T/C [13] of 107%, a viability, T/C [14] of 98% and a viability, T/C [15] of 115%. The viability, T/C [16] was 83.1%, the viability, T/C [17] was 77.2% and the viability, T/C [18] was 31.9%. For the same compound, the viability, T/C [19] was 121%, the viability, T/C [20] was 101% and the viability, T/C [21] was 94%. It also gave a viability, T/C [22] of 84.4%, a viability, T/C [23] of 77.2% and a viability, T/C [24] of 31.8%. The viability, T/C [25] was 93.1%, the viability, T/C [26] was 106% and the viability, T/C [27] was 114%. For the same compound, the viability, T/C [28] was 99.3%, the viability, T/C [29] was 70.4% and the viability, T/C [30] was 32.4%. The viability, T/C [31] was 97.6%, the viability, T/C [32] was 91.4% and the viability, T/C [33] was 100%. For the same compound, the viability, T/C [34] was 89.2%, the viability, T/C [35] was 71.1% and the viability, T/C [36] was 29.8%.

Compound CCc1cc2c(N3CCc4c(cc(Cn5ccnc5)cc4-c4cn(C)nc4C(F)(F)F)C3=O)cc(C)nc2c(OC)n1 + COC1C(OC(N)=O)C(O)C(Oc2ccc3c(O)c(NC(=O)c4ccc(O)c(CC=C(C)C)c4)c(=O)oc3c2C)OC1(C)C has an IC50 (second compound 0.0316 µM) of 0.4 µM, an IC50 (second compound 0.1 µM) of 0.277 µM and an IC50 (second compound 0.316 µM) of 0.313 µM. It also gave an IC50 (second compound 1 µM) of 0.214 µM, an IC50 (second compound 3.16 µM) of 0.244 µM and an IC50 (second compound 10 µM) of 0.667 µM. For the same compound, the viability, T/C [1] was 79.3%, the viability, T/C [2] was 65.2% and the viability, T/C [3] was 49.6%. The viability, T/C [4] was 42.6%, the viability, T/C [5] was 33.4% and the viability, T/C [6] was 23.4%. For the same compound, the viability, T/C [7] was 72.5%, the viability, T/C [8] was 73% and the viability, T/C [9] was 46.9%. For the same compound, the viability, T/C [10] was 27.6%, the viability, T/C [11] was 26% and the viability, T/C [12] was 23.8%. The viability, T/C [13] was 68%, the viability, T/C [14] was 52% and the viability, T/C [15] was 52.7%. The viability, T/C [16] was 43.6%, the viability, T/C [17] was 31.1% and the viability, T/C [18] was 23.5%. For the same compound, the viability, T/C [19] was 88.8%, the viability, T/C [20] was 60.7% and the viability, T/C [21] was 46.9%. For the same compound, the viability, T/C [22] was 31.2%, the viability, T/C [23] was 28.8% and the viability, T/C [24] was 28.9%. For the same compound, the viability, T/C [25] was 60.1%, the viability, T/C [26] was 58.4% and the viability, T/C [27] was 47.1%. For the same compound, the viability, T/C [28] was 35.8%, the viability, T/C [29] was 27.6% and the viability, T/C [30] was 21.6%. The viability, T/C [31] was 66.9%, the viability, T/C [32] was 65.8% and the viability, T/C [33] was 62.3%. It also gave a viability, T/C [34] of 43.1%, a viability, T/C [35] of 29.7% and a viability, T/C [36] of 25%.
